{"source": "ChEMBL document CHEMBL1201862", "about": "“PubChem BioAssay data set” (2004)", "assay_in_all_cases": "NCI tumour cell line growth inhibition, 48 h", "key": {"[1]": {"system": "NCI-H460"}, "[2]": {"system": "CCRF-CEM"}, "[3]": {"system": "HL-60"}, "[4]": {"system": "TK-10"}, "[5]": {"system": "SF-268"}, "[6]": {"system": "SNB-75"}, "[7]": {"system": "SNB-19"}, "[8]": {"system": "RXF 393"}, "[9]": {"system": "MDA-MB-435"}, "[10]": {"system": "MDA-MB-231"}, "[11]": {"system": "HT-29"}, "[12]": {"system": "UO-31"}, "[13]": {"system": "OVCAR-5"}, "[14]": {"system": "MCF7"}, "[15]": {"system": "NCI/ADR-RES"}, "[16]": {"system": "NCI-H226"}, "[17]": {"system": "OVCAR-8"}, "[18]": {"system": "NCI-H522"}, "[19]": {"system": "A549"}, "[20]": {"system": "PC-3"}}, "note": "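Where inhibition never reached the appropriate level, the endpoint shown equals the highest concentration tested. Otherwise, values were interpolated linearly from a five-concentration, 48-hour dose response in 96-well plates. GI50: concentration for 50% inhibition of growth.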 Calls of active or inactive are those of the source. Cut-off read from the data, not from the text of the source: active = GI50 up to about 1.1 µM and inactive = higher."}
{"smiles": "COc1ccc(C[C@@H]2OC3(C=CC(=O)C=C3)O[C@H]2Cc2ccc(OC)cc2)cc1", "values": [{"measurement": "GI50", "setting": "[1]", "value": "7.14 µM (inactive)"}, {"measurement": "GI50", "setting": "[2]", "value": "0.14 µM (active)"}, {"measurement": "GI50", "setting": "[3]", "value": "1.52 µM (inactive)"}, {"measurement": "GI50", "setting": "[4]", "value": "0.281 µM (active)"}, {"measurement": "GI50", "setting": "[5]", "value": "0.771 µM (active)"}, {"measurement": "GI50", "setting": "[6]", "value": "1.68 µM (inactive)"}, {"measurement": "GI50", "setting": "[7]", "value": "1.82 µM (inactive)"}, {"measurement": "GI50", "setting": "[8]", "value": "0.277 µM (active)"}, {"measurement": "GI50", "setting": "[9]", "value": "1.53 µM (inactive)"}, {"measurement": "GI50", "setting": "[10]", "value": "1.39 µM (inactive)"}, {"measurement": "GI50", "setting": "[11]", "value": "0.766 µM (active)"}, {"measurement": "GI50", "setting": "[12]", "value": "0.29 µM (active)"}, {"measurement": "GI50", "setting": "[13]", "value": "0.832 µM (active)"}, {"measurement": "GI50", "setting": "[14]", "value": "0.558 µM (active)"}, {"measurement": "GI50", "setting": "[15]", "value": "0.822 µM (active)"}, {"measurement": "GI50", "setting": "[16]", "value": "0.232 µM (active)"}, {"measurement": "GI50", "setting": "[17]", "value": "0.193 µM (active)"}, {"measurement": "GI50", "setting": "[18]", "value": "0.147 µM (active)"}, {"measurement": "GI50", "setting": "[19]", "value": "3.1 µM (inactive)"}, {"measurement": "GI50", "setting": "[20]", "value": "1.33 µM (inactive)"}]}
{"smiles": "O=C(N[C@H](CO)[C@H](O)c1ccc([N+](=O)[O-])cc1)C(Cl)Cl", "note": "[CHLORAMPHENICOL]", "values": [{"measurement": "GI50", "setting": "[1]", "value": "> 100 µM (inactive)"}, {"measurement": "GI50", "setting": "[2]", "value": "> 100 µM (inactive)"}, {"measurement": "GI50", "setting": "[3]", "value": "> 100 µM (inactive)"}, {"measurement": "GI50", "setting": "[4]", "value": "> 100 µM (inactive)"}, {"measurement": "GI50", "setting": "[5]", "value": "> 100 µM (inactive)"}, {"measurement": "GI50", "setting": "[6]", "value": "98.2 µM (inactive)"}, {"measurement": "GI50", "setting": "[7]", "value": "> 100 µM (inactive)"}, {"measurement": "GI50", "setting": "[8]", "value": "> 100 µM (inactive)"}, {"measurement": "GI50", "setting": "[9]", "value": "> 100 µM (inactive)"}, {"measurement": "GI50", "setting": "[10]", "value": "47.8 µM (inactive)"}, {"measurement": "GI50", "setting": "[11]", "value": "> 100 µM (inactive)"}, {"measurement": "GI50", "setting": "[12]", "value": "> 100 µM (inactive)"}, {"measurement": "GI50", "setting": "[13]", "value": "> 100 µM (inactive)"}, {"measurement": "GI50", "setting": "[14]", "value": "> 100 µM (inactive)"}, {"measurement": "GI50", "setting": "[15]", "value": "> 100 µM (inactive)"}, {"measurement": "GI50", "setting": "[16]", "value": "> 100 µM (inactive)"}, {"measurement": "GI50", "setting": "[17]", "value": "> 100 µM (inactive)"}, {"measurement": "GI50", "setting": "[18]", "value": "> 100 µM (inactive)"}, {"measurement": "GI50", "setting": "[19]", "value": "> 100 µM (inactive)"}, {"measurement": "GI50", "setting": "[20]", "value": "> 100 µM (inactive)"}]}
{"smiles": "C=CC(COC(=O)C(C)(C)OC(C)=O)c1ccc(OC(=O)C(C)C)c(OC)c1", "note": "(stereo not given)", "values": [{"measurement": "GI50", "setting": "[1]", "value": "2.62 µM (inactive)"}, {"measurement": "GI50", "setting": "[2]", "value": "2.78 µM (inactive)"}, {"measurement": "GI50", "setting": "[3]", "value": "4.6 µM (inactive)"}, {"measurement": "GI50", "setting": "[4]", "value": "8.57 µM (inactive)"}, {"measurement": "GI50", "setting": "[5]", "value": "5.2 µM (inactive)"}, {"measurement": "GI50", "setting": "[6]", "value": "7.16 µM (inactive)"}, {"measurement": "GI50", "setting": "[7]", "value": "11.1 µM (inactive)"}, {"measurement": "GI50", "setting": "[8]", "value": "6.07 µM (inactive)"}, {"measurement": "GI50", "setting": "[9]", "value": "8.91 µM (inactive)"}, {"measurement": "GI50", "setting": "[10]", "value": "2.64 µM (inactive)"}, {"measurement": "GI50", "setting": "[11]", "value": "3.27 µM (inactive)"}, {"measurement": "GI50", "setting": "[12]", "value": "7.69 µM (inactive)"}, {"measurement": "GI50", "setting": "[13]", "value": "14.6 µM (inactive)"}, {"measurement": "GI50", "setting": "[14]", "value": "2.51 µM (inactive)"}, {"measurement": "GI50", "setting": "[15]", "value": "11 µM (inactive)"}, {"measurement": "GI50", "setting": "[16]", "value": "18.2 µM (inactive)"}, {"measurement": "GI50", "setting": "[17]", "value": "9.82 µM (inactive)"}, {"measurement": "GI50", "setting": "[18]", "value": "2.23 µM (inactive)"}, {"measurement": "GI50", "setting": "[19]", "value": "19.8 µM (inactive)"}, {"measurement": "GI50", "setting": "[20]", "value": "9.68 µM (inactive)"}]}
{"smiles": "Cc1c(Cl)c(C)c(Cl)c(O)c1Cl", "values": [{"measurement": "GI50", "setting": "[1]", "value": "24.7 µM (inactive)"}, {"measurement": "GI50", "setting": "[2]", "value": "33.7 µM (inactive)"}, {"measurement": "GI50", "setting": "[3]", "value": "18.7 µM (inactive)"}, {"measurement": "GI50", "setting": "[4]", "value": "22.1 µM (inactive)"}, {"measurement": "GI50", "setting": "[5]", "value": "26.7 µM (inactive)"}, {"measurement": "GI50", "setting": "[6]", "value": "23.9 µM (inactive)"}, {"measurement": "GI50", "setting": "[7]", "value": "30.5 µM (inactive)"}, {"measurement": "GI50", "setting": "[8]", "value": "26 µM (inactive)"}, {"measurement": "GI50", "setting": "[9]", "value": "18.9 µM (inactive)"}, {"measurement": "GI50", "setting": "[10]", "value": "27 µM (inactive)"}, {"measurement": "GI50", "setting": "[11]", "value": "48.5 µM (inactive)"}, {"measurement": "GI50", "setting": "[12]", "value": "17.4 µM (inactive)"}, {"measurement": "GI50", "setting": "[13]", "value": "35.2 µM (inactive)"}, {"measurement": "GI50", "setting": "[14]", "value": "31.6 µM (inactive)"}, {"measurement": "GI50", "setting": "[15]", "value": "22.2 µM (inactive)"}, {"measurement": "GI50", "setting": "[16]", "value": "15.1 µM (inactive)"}, {"measurement": "GI50", "setting": "[17]", "value": "30.3 µM (inactive)"}, {"measurement": "GI50", "setting": "[18]", "value": "17.9 µM (inactive)"}, {"measurement": "GI50", "setting": "[19]", "value": "21.2 µM (inactive)"}, {"measurement": "GI50", "setting": "[20]", "value": "19.8 µM (inactive)"}]}
{"smiles": "CN(C)c1ccc(/C=N\\NC(=O)CSCC(=O)N/N=C/c2ccc(N(C)C)cc2)cc1", "values": [{"measurement": "GI50", "setting": "[1]", "value": "33.2 µM (inactive)"}, {"measurement": "GI50", "setting": "[2]", "value": "60.5 µM (inactive)"}, {"measurement": "GI50", "setting": "[3]", "value": "70.5 µM (inactive)"}, {"measurement": "GI50", "setting": "[4]", "value": "> 100 µM (inactive)"}, {"measurement": "GI50", "setting": "[5]", "value": "> 100 µM (inactive)"}, {"measurement": "GI50", "setting": "[6]", "value": "56 µM (inactive)"}, {"measurement": "GI50", "setting": "[7]", "value": "> 100 µM (inactive)"}, {"measurement": "GI50", "setting": "[8]", "value": "24.9 µM (inactive)"}, {"measurement": "GI50", "setting": "[9]", "value": "76.6 µM (inactive)"}, {"measurement": "GI50", "setting": "[10]", "value": "13.7 µM (inactive)"}, {"measurement": "GI50", "setting": "[11]", "value": "78.5 µM (inactive)"}, {"measurement": "GI50", "setting": "[12]", "value": "30.8 µM (inactive)"}, {"measurement": "GI50", "setting": "[13]", "value": "60.5 µM (inactive)"}, {"measurement": "GI50", "setting": "[14]", "value": "40.5 µM (inactive)"}, {"measurement": "GI50", "setting": "[15]", "value": "36 µM (inactive)"}, {"measurement": "GI50", "setting": "[16]", "value": "34.2 µM (inactive)"}, {"measurement": "GI50", "setting": "[17]", "value": "53.7 µM (inactive)"}, {"measurement": "GI50", "setting": "[18]", "value": "27.6 µM (inactive)"}, {"measurement": "GI50", "setting": "[19]", "value": "71.9 µM (inactive)"}, {"measurement": "GI50", "setting": "[20]", "value": "45.2 µM (inactive)"}]}
{"smiles": "O=C1CCc2cc3c(cc21)CC1(Cc2ccccc2C1)C3", "values": [{"measurement": "GI50", "setting": "[1]", "value": "6.31 µM (inactive)"}, {"measurement": "GI50", "setting": "[2]", "value": "2.98 µM (inactive)"}, {"measurement": "GI50", "setting": "[3]", "value": "2.43 µM (inactive)"}, {"measurement": "GI50", "setting": "[4]", "value": "30.3 µM (inactive)"}, {"measurement": "GI50", "setting": "[5]", "value": "37.8 µM (inactive)"}, {"measurement": "GI50", "setting": "[6]", "value": "15.7 µM (inactive)"}, {"measurement": "GI50", "setting": "[7]", "value": "27.2 µM (inactive)"}, {"measurement": "GI50", "setting": "[8]", "value": "33 µM (inactive)"}, {"measurement": "GI50", "setting": "[9]", "value": "2.58 µM (inactive)"}, {"measurement": "GI50", "setting": "[10]", "value": "12 µM (inactive)"}, {"measurement": "GI50", "setting": "[11]", "value": "3.14 µM (inactive)"}, {"measurement": "GI50", "setting": "[12]", "value": "4.02 µM (inactive)"}, {"measurement": "GI50", "setting": "[13]", "value": "16.3 µM (inactive)"}, {"measurement": "GI50", "setting": "[14]", "value": "9.29 µM (inactive)"}, {"measurement": "GI50", "setting": "[15]", "value": "7.31 µM (inactive)"}, {"measurement": "GI50", "setting": "[16]", "value": "12.9 µM (inactive)"}, {"measurement": "GI50", "setting": "[17]", "value": "24.9 µM (inactive)"}, {"measurement": "GI50", "setting": "[18]", "value": "9.14 µM (inactive)"}, {"measurement": "GI50", "setting": "[19]", "value": "12 µM (inactive)"}, {"measurement": "GI50", "setting": "[20]", "value": "14.2 µM (inactive)"}]}
